# Data published in patent US5912247A, “Quinazoline compound and anti-tumor agent containing said compound as an active ingredient” (Kanebo, Ltd., priority 1995, dated 1999).
# Where a name gives a salt, the structure may show the parent alone.
# Columns and labels:
# Colon 26 solid tumor = assay: Inhibitory activity of dye accumulation in the solid tumor tissue (inhibition of the tumor blood flow); type: in vivo, Male BALB/c mice; design: key to Inhibitory activity of dye accumulation into solid tumor: +: The average absorbance in the test group is significantly smaller than the average absorbance in the control group.; -: There is no significant difference in the average absorbance between the test group and the control group; settings: for Inhibitory activity of dye accumulation into solid tumor: intravenous, Evans blue 1 hour after administration
# Procedure: Inhibitory activity of dye accumulation in the solid tumor tissue (inhibition of the tumor blood flow): a) Materials: Test Animal: Male BALB/c mice (weighing 21-27 g, six mice per group) Tumor: Colon 26 solid tumor b) Test Method: Colon 26 solid tumor was cut in a size of about 1 mm square. The pieces of solid tumor were treated with a 0.25% collagenase solution and 0.02% deoxyribonuclease solution at 37° C. for 1.5 hour to give a cell suspension of colon 26 solid tumor cells. The cell suspension was adjusted to 3×10^6 cells/ml and the cell suspension (100 μl) was subcutaneously inoculated on the right back of male BALB/c mice. Ten days after the transplantation, the longitudinal size of the tumor was measured, and when the longitudinal size of the tumor reached about 10 mm, the mice were randomized. To the mice in test groups, the test compound was intravenously administered in an amount of 10 mg/kg or 1.25 mg/kg. The test compound was administered in the form of a solution in saline (in the test solution of Test Compound BF and BK, an equimolar amount of fumaric acid was further added, and in the test solution of Test Compound BN, an equimolar amount of hydrochloric acid was further added). To the mice in the control group, only saline was administered intravenously. One hour after the administration, 3% Evans blue-saline solution was injected intravenously via the tail vein of the mice in a volume of 0.1 ml per 10 g of the body weight of mouse, and 5 minutes later the mice were killed by luxation of the cervical vertebrae. After removing the tumor, the tumor was weighed. To extract Evans blue, the tumor was suspensed in 0.5% aqueous sodium sulfate (1.5 ml per 1 g of the tumor) and acetone (3.5 ml per 1 g of tumor), and then the tumor was cut into small pieces. After allowing to stand at room temperature overnight, the suspension were centrifuged at 3,000 rpm for 10 minutes to extract Evans blue, and the absorbance of the supernatant was read at 630 nm. […] (-): There is no significant difference in the average absorbance between the test group and the control group.
# [1] = test system: St-4 solid tumor (human gastric cancer transplantable to nude mouse); assay: Anti-tumor activity against human gastric cancer St-4 (solid tumor) transplanted to nude mouse; type: in vivo, human (in male BALB/cA JCI-nu nude mice)
# Description: Anti-tumor activity against human gastric cancer St-4 (solid tumor) transplanted to nude mouse: a) Materials: Test Animal: Male BALB/cA JCI-nu nude mice (six week old, six mice per group) Tumor: St-4 solid tumor (human gastric cancer transplantable to nude mouse) b) Test Method: St-4 solid tumor was cut to about 3 mm cubic, and the fragments were subcutaneously transplanted into the back at one side of the nude mice with a trockar. Ten days after the transplantation, the longitudinal size (L) and the size of the width direction (W) of the tumor were measured. The tumor weight was calculated by the formula: L×W×W/2, and when the weight of the tumor reached 100 mg to 300 mg, the mice were randomized. To the mice in test groups, the test compound was orally administered once a day for 40 days. The test compounds of this invention were administered in an amount of 30 mg/kg or 40 mg/kg in the form of a solution in distilled water, and No. 5666 was administered in an amount of 30 mg/kg or 100 mg/kg in the form of a suspension in 5% arabic gum solution. After the administration of the test compounds, the longitudinal size and the size in the width direction of the tumor were measured, and then the weight of tumor was calculated. The ratio of the tumor weight after treated with test compounds to the tumor weight before administration of test compounds (i.e. the relative tumor weight) was determined. As to the control group, the relative tumor weight was also determined likewise. The anti-tumor activity was evaluated in the same manner as described in Ann. Clin. Lab. Sci., 8 (1), 50 (1978). That is, the ratio of the relative tumor weight in the test group (T) to that in the control group (C) [T/C (%)] was calculated, and when the minimum of the ratio [Min.
# Acute toxicity = settings: mouse, in vivo, one week observation
# Procedure: Test Animal: Male ddY mice (5 week old, five mice per group)
# To male ddY mice was administered a solution of a test compound in saline intravenously, or a solution of a test compound in distilled water orally. One week after the administration, the number of death of mice was counted, and the LD50 was calculated therefrom by a probit method.
# Hemolytic activity = type: cell-based, Male Donryu rats; settings: rat, red blood cells; 20 μg/ml, 37° C., 60 minutes; read-out: hemolytic ratio
# Procedure: (§1) Hemolytic activity: a) Materials: Test Animal: Male Donryu rats Test Compounds: The same as in Experiment 1 b) Test Method: Blood (about 6 ml or more) was collected from abdominal large vein of male Donryu rats, which was taken in a test tube containing dipotassium ethylenediamine tetraacetate (10 mg). The blood thus collected was divided into each 2 ml, which was centrifuged at 3,000 rpm for 5 minutes. After removing the supernatant, a 150 mM phosphate buffer (pH 7.4) (10 ml) was added thereto, and the mixture was mildly mixed. The mixture was centrifuged at 3,000 rpm for 5 minutes, followed by washing with the same phosphate buffer as above. This procedure was repeated twice. Finally, the same phosphate buffer was added thereto to prepare a test blood cell suspension. The test compound was dissolved in a saline solution in a concentration of 2 mg/ml in case of No. 5666, and of 20 mg/ml in case of the test compounds of this invention. […] Immediately after the incubation, the mixture was centrifuged at 3,000 rpm for 5 minutes, and the supernatant (each 200 μl) was added to a well of a 96 well microplate (an immunoassay plate with plane bottom), and the absorbance (OD: optical density) was read with a microplate reader (at a wavelength of 550 nm). […] The hemolytic rate was calculated by the following equation: [formula] […]
# [2] = test system: test blood cell suspension; assay: Hemolytic activity; type: cell-based, Male Donryu rats; settings: 20 μg/ml
# Procedure: as §1
SMILES,Inhibitory activity of dye accumulation into solid tumor (Colon 26 solid tumor; 1.25 mg/kg),Inhibitory activity of dye accumulation into solid tumor (Colon 26 solid tumor; 10 mg/kg),further results
"O[C@@H]1C[C@@H](Oc2nc(N3CCNCC3)nc3ccccc23)C[C@@H]1O [Compound AM, 4-[(t-3,t-4-Dihydroxycyclopentan-r-1-yl)oxy]-2-(1-piperazinyl)quinazoline monohydrochloride]",+,+,"Evaluation ([1]; 30 mg/kg (po) (× 40 days)): Effective (when the minimum of the ratio [Min. T/C (%)] was less than 42%, the test compound was evaluated as ""effective""); Min. T/C (%) ([1]; 30 mg/kg (po) (× 40 days)): 36.1%; LD50 at 168 h (Acute toxicity; Intravenous injection): 101 mg/kg; LD50 at 168 h (Acute toxicity; Oral administration): > 500 mg/kg"
"C=CCN1CCN(c2nc(OCCCCC)c3ccccc3n2)CC1.O=C(O)/C=C/C(=O)O [No. 5666, 2-(4-Allylpiperazin-1-yl)-4-[(1-pentyl)oxy]-quinazoline monofumarate, reference compound]",-,+,"inhibition of the flow of blood into tumor tissue / dye accumulation (in words) (Colon 26 solid tumor; mouse solid tumor (colon 26)): has such an inhibitory activity; Evaluation ([1]; 30 mg/kg (po) (× 40 days)): Non-effective; Min. T/C (%) ([1]; 30 mg/kg (po) (× 40 days)): 59.7%; Evaluation ([1]; 100 mg/kg (po) (× 40 days)): Effective (when the minimum of the ratio [Min. T/C (%)] was less than 42%, the test compound was evaluated as ""effective""); Min. T/C (%) ([1]; 100 mg/kg (po) (× 40 days)): 29.9%; hemolysis at 1 h (Hemolytic activity): 38%; hemolytic activity (in words) [2]: induced hemolytic activity"
"CO[C@H]1C[C@@H](Oc2nc(N3CCNCC3)nc3ccccc23)[C@H](O)[C@@H]1O [Compound AS, 4-[(1R,2R,3S,4S)-(2,3-Dihydroxy-4-methoxy-cyclopentan-1-yl)oxy]-2-(1-piperazinyl)quinazoline 1/2 fumarate]",+,+,
"CO[C@@H]1C[C@H](Oc2nc(N3CCNCC3)nc3ccccc23)[C@@H](O)[C@H]1O [Compound AR, 4-[(1S,2S,3R,4R)-(2,3-Dihydroxy-4-methoxy-cyclopentan-1-yl)oxy]-2-(1-piperazinyl)quinazoline 1/2 fumarate]",+,+,
"CC(=O)O.OC1CCC(Oc2nc(N3CCNCC3)nc3ccccc23)C1 (centres unmarked) [Compound AC, 4-[(3-Hydroxycyclopentan-1-yl)oxy]-2-(1-piperazinyl)quinazoline monoacetate]",+,+,
"OC[C@H](O)[C@H](O)COc1nc(N2CCNCC2)nc2ccccc12 (racemic) [Compound BK, 4-[(2RS,3SR)-(2,3,4-Trihydroxybutan-1-yl)oxy]-2-(1-piperazinyl)quinazoline]",+,+,
"Cl.OC[C@H](O)[C@@H](O)COc1nc(N2CCNCC2)nc2ccccc12 [Compound BL, 4-[(2S,3S)-(2,3,4-Trihydroxybutan-1-yl)oxy]-2-(1-piperazinyl)quinazoline monohydrochloride]",+,+,
"CC(=O)O.O[C@@H]1COC[C@H]1Oc1nc(N2CCNCC2)nc2ccccc12 [Compound AI, 4-[(3R,4R)-(4-Hydroxytetrahydrofuran-3-yl)oxy]-2-(1-piperazinyl)quinazoline monoacetate]",+,+,"Evaluation ([1]; 40 mg/kg (po) (× 40 days)): Effective (when the minimum of the ratio [Min. T/C (%)] was less than 42%, the test compound was evaluated as ""effective""); Min. T/C (%) ([1]; 40 mg/kg (po) (× 40 days)): 31.7%"
"CC(=O)O.OCC(O)COc1nc(N2CCNCC2)nc2ccccc12 (racemic) [Compound BB, 4-[(RS)-(2,3-Dihydroxypropyl)oxy]-2-(1-piperazinyl)quinazoline monoacetate]",+,+,
"O[C@@H]1COC[C@H]1Oc1nc(N2CCNCC2)nc2ccccc12 [Compound AJ, 4-[(3R,4R)-(4-Hydroxytetrahydrofuran-3-yl)-oxy]-2-(1-piperazinyl)quinazoline 1/2 hydrochloride]",+,+,
"Cl.OC[C@H](O)CCOc1nc(N2CCNCC2)nc2ccccc12 [Compound BJ, 4-[(3R)-(3,4-Dihydroxybutan-1-yl)oxy]-2-(1-piperazinyl)quinazoline monohydrochloride]",+,+,"Evaluation ([1]; 30 mg/kg (po) (× 40 days)): Effective (when the minimum of the ratio [Min. T/C (%)] was less than 42%, the test compound was evaluated as ""effective""); Min. T/C (%) ([1]; 30 mg/kg (po) (× 40 days)): 38.8%; LD50 at 168 h (Acute toxicity; Intravenous injection): 118 mg/kg; LD50 at 168 h (Acute toxicity; Oral administration): > 1000 mg/kg"
"OC[C@@H](O)COc1nc(N2CCNCC2)nc2ccccc12 [Compound BN, 4-[(2R)-(2,3-Dihydroxypropan-1-yl)oxy]-2-(1-piperazinyl)quinazoline]",+,,
"CC(=O)O.C[C@H](O)[C@H](C)Oc1nc(N2CCNCC2)nc2ccccc12 [Compound BD, 4-[(2S,3S)-(3-Hydroxybutan-2-yl)oxy]-2-(1-piperazinyl)quinazoline monoacetate]",,+,
